The IC50 is the concentration needed to halve the response being measured.

For one assay, the target named is human V2 receptor (Homo sapiens, UniProt P30518). Description: In-vitro receptor binding assay (3H-arginine-8-vasopressin), V2. As to conditions: for inhibition at 10 µM / inhibition at 1 µM: read-out: Receptor Binding V2 (% Inh. @ concentration in μM). As to the method:
(§1) (A) In-Vitro Binding Assay […] The reaction plates are allowed to sit at room temperature for one hour. The samples are filtered through Unifilter GF/C plates (presoaked in 0.3 polyethyleneimine). The plates are washed 5 times with cold physiological saline containing 0.05% Tween 20. After drying, the bottom of the filter plates are sealed and 0.025 ml of Microscint-20 is added to each filter. The top of the plate is sealed, and the plate is counted. Non-specific binding is determined by the addition of 1.25 μM […]-vasopressin in those wells. % Inh. is calculated as follows: […]

The target in the next assay is V1a (Homo sapiens, UniProt P37288). Description: In-vitro receptor binding assay (3H-arginine-8-vasopressin), V1a. As to the method: as §1
[1] abbreviates: @ 0.1 μM, read-out: Receptor Binding V1a (% Inh. @ concentration in μM).

Sequence of human V2 receptor (P30518 whole entry): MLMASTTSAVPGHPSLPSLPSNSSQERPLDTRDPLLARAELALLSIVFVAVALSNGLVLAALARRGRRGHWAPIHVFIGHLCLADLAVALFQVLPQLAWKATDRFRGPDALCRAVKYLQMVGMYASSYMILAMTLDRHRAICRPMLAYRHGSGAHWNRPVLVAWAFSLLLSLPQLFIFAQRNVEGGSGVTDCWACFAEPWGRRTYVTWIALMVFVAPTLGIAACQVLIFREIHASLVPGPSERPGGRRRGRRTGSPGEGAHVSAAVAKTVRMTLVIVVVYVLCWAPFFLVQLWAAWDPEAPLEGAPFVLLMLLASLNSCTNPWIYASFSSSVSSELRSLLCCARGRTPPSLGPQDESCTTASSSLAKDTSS
Sequence of V1a (P37288 whole entry): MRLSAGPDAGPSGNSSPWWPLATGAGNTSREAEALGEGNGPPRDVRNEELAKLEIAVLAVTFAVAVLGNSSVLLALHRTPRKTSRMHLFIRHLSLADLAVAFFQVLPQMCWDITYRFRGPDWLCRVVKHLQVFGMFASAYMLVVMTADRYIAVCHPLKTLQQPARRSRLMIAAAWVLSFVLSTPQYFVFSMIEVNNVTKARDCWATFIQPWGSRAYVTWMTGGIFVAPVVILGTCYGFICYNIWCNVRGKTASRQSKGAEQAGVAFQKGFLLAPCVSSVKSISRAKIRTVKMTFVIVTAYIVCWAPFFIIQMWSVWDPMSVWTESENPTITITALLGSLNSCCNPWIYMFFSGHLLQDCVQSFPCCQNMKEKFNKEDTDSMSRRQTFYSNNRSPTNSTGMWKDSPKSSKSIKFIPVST

Consider `O=C(Nc1ccc(C(=O)N2CCC3(C=CCCC3)Cc3ccccc32)cc1)c1ccccc1F` (single isomer, unassigned) [Compound 108], for which the IC50 at human V2 receptor is 0.57 µM; on V1a, 0.024 µM.
`O=C(Nc1ccc(C(=O)N2CCC3(C=CCCC3)Cc3ccccc32)cc1)c1ccccc1F` (single isomer, unassigned) [Compound 109]: the values for the IC50 on human V2 receptor and on V1a were 0.3 µM and 0.014 µM, respectively.
Taken in the same sequence, the figures for `O=CC1=CC2(CC1)CCN(C(=O)c1ccc(NC(=O)c3ccccc3-c3ccccc3)cc1)c1ccccc1C2` (centres unmarked) [Compound 2, 4-(2-Phenylbenzoyl-4-aminobenzoyl)-3′-(formyl)-4-aza-[6,4]-spiro-[5,6]-benzoundec-2′-ene] were 0.029 µM and 0.016 µM.
For `O=C(O)C1=CC2(CC1)CCN(C(=O)c1ccc(NC(=O)c3ccccc3F)cc1)c1ccccc1C2` (centres unmarked) [Compound 7, 4-(2-Fluorobenzoyl-4-aminobenzoyl)-3′-(carboxyl)-4-aza-[6,4]-spiro-[5,6]-benzoundec-2′-ene], at human V2 receptor (@ 0.1 μM), the “Receptor Binding V2 (% Inh. @ concentration in μM)” value came out at 15% @ 0.1. Also, the “Receptor Binding V1a (% Inh. @ concentration in μM)” value on V1a (@ 0.1 μM) is on record as 43% @ 0.1.
Turning to `O=C(O)CNC(=O)C1=CC2(CC1)CCN(C(=O)c1ccc(NC(=O)c3ccccc3-c3ccccc3)cc1)c1ccccc1C2` (centres unmarked) [Compound 10], the results for the IC50 at human V2 receptor and on V1a were 0.018 µM and 0.024 µM, respectively.
With `Cc1ccc(F)cc1C(=O)Nc1ccc(C(=O)N2CCC3(C=C(C(=O)NCCO)CC3)Cc3ccccc32)c(Cl)c1` (centres unmarked) [Compound 11], the IC50 came to 0.01 µM on human V2 receptor and 0.028 µM at V1a.
Consider `COC(=O)CNC(=O)C1=CC2(CC1)CCN(C(=O)c1ccc(NC(=O)c3ccccc3-c3ccccc3)cc1)c1ccccc1C2` (centres unmarked) [Compound 12], for which the IC50 on human V2 receptor came to 0.018 µM; at V1a, 0.013 µM.
As to `N#Cc1ccc(C(=O)N2CCC3(CCCCC3)Cc3ccccc32)cc1` [Compound 24], the inhibition at 10 µM at human V2 receptor (@ 10 μM) stood at 26%. This compound also came in with an IC50 at V1a of 0.8 µM.
As for `Nc1ccc(C(=O)N2CCC3(CCCCC3)Cc3ccccc32)cc1` [Compound 25], at human V2 receptor (@ 10 μM), the inhibition at 10 µM came to 7%. On V1a, this compound gave an IC50 of 10 µM.
As for `Cc1ccccc1C(=O)Nc1ccc(C(=O)N2CCC3(CCCCC3)Cc3ccccc32)cc1` [Compound 28], the “Receptor Binding V2 (% Inh. @ concentration in μM)” value on human V2 receptor (@ 10 μM) was 1% @ 10. Moreover, on V1a, the IC50 amounted to 0.25 µM.
With `COc1ccc(C(=O)N2CCC3(CCCCC3=O)Cc3ccccc32)cc1` (centres unmarked) [Compound 29], on human V2 receptor (@ 1 μM), the inhibition at 1 µM turned out to be 8%. Further, on V1a, the IC50 was 0.013 µM.
Turning to `O=C(Nc1ccc(C(=O)N2CCC3(CCCCC3=O)Cc3ccccc32)cc1)c1ccccc1-c1ccccc1` (centres unmarked) [Compound 30, 4-(2-Phenylbenzoyl-4-aminobenzoyl)-4-aza-2′-oxo-[6,5]-spiro-[5,6]-benzododecane], the values for the IC50 at human V2 receptor and at V1a were 0.033 µM and 0.035 µM, respectively.
Turning to `O=C(Nc1ccc(C(=O)N2CCC3(CCCCC3=O)Cc3ccccc32)cc1)c1ccccc1-c1ccccc1` (centres unmarked) [Compound 31], the results for the 50% inhibitory concentration (IC50) at human V2 receptor and on V1a were 0.054 µM and 0.021 µM, respectively.
For `O=C(Nc1ccc(C(=O)N2CCC3(CCCCC3O)Cc3ccccc32)cc1)c1ccccc1-c1ccccc1` (centres unmarked) [Compound 32] the same measures were 0.028 µM and 0.061 µM.
As for `O=C(c1ccccc1)N1CCC2(C=CCCC2)Cc2ccccc21` (centres unmarked) [Compound 34], the half-inhibitory concentration (IC50) on V1a came out at 0.65 µM.
As for `O=C(c1ccncc1)N1CCC2(C=CCCC2)Cc2ccccc21` (centres unmarked) [Compound 35], the IC50 on human V2 receptor was > 25 µM; on V1a it was 1.4 µM.
Take `O=C(c1ccc(C(F)(F)F)cc1)N1CCC2(C=CCCC2)Cc2ccccc21` (centres unmarked) [Compound 38]: the “Receptor Binding V2 (% Inh. @ concentration in μM)” value at human V2 receptor (@ 10 μM) is listed as 35% @ 10. Also, the IC50 on V1a is 1.6 µM.
Consider `O=C(c1ccc(Cl)cc1)N1CCC2(C=CCCC2)Cc2ccccc21` (centres unmarked) [Compound 39], for which the IC50 amounted to 10 µM on human V2 receptor and 1.1 µM on V1a.
As to `O=C(c1ccc(I)cc1)N1CCC2(C=CCCC2)Cc2ccccc21` (centres unmarked) [Compound 40], the “Receptor Binding V2 (% Inh. @ concentration in μM)” value on human V2 receptor (@ 10 μM) stood at 27% @ 10. Besides, the IC50 on V1a came out at 0.57 µM.
Taken in the same sequence, the figures for `Cc1ccc(C(=O)N2CCC3(C=CCCC3)Cc3ccccc32)cc1` (centres unmarked) [Compound 41] were 0% @ 10 and 0.32 µM.
Consider `NCc1ccc(C(=O)N2CCC3(C=CCCC3)Cc3ccccc32)cc1` (centres unmarked) [Compound 42], for which the “Receptor Binding V2 (% Inh. @ concentration in μM)” value at human V2 receptor (@ 10 μM) came out at 24% @ 10. Also, on V1a (@ 10 μM), the “Receptor Binding V1a (% Inh. @ concentration in μM)” value is 0% @ 10.
As to `O=C(c1ccc(F)c(F)c1)N1CCC2(C=CCCC2)Cc2ccccc21` (centres unmarked) [Compound 43], on human V2 receptor (@ 10 μM), the inhibition at 10 µM was 42%. For the same compound, at V1a, the IC50 was 0.68 µM.
Consider `O=C(c1ccc(F)cc1)N1CCC2(C=CCCC2)Cc2ccccc21` (centres unmarked) [Compound 44], for which the “Receptor Binding V2 (% Inh. @ concentration in μM)” value at human V2 receptor (@ 10 μM) is 42% @ 10.
With `CN(C)c1ccc(C(=O)N2CCC3(C=CCCC3)Cc3ccccc32)cc1` (centres unmarked) [Compound 45], the IC50 on human V2 receptor worked out at 10 µM; at V1a, 0.11 µM.
Turning to `O=C(c1cccc(Cl)c1)N1CCC2(C=CCCC2)Cc2ccccc21` (centres unmarked) [Compound 46], the inhibition at 10 µM on human V2 receptor (@ 10 μM) turned out to be 33%. At V1a, this compound registered an IC50 of 3.5 µM.
Regarding `O=C(c1cc(F)cc(F)c1)N1CCC2(C=CCCC2)Cc2ccccc21` (centres unmarked) [Compound 47], the “Receptor Binding V2 (% Inh. @ concentration in μM)” value on human V2 receptor (@ 10 μM) is reported as 29% @ 10. Moreover, at V1a, the IC50 is 0.39 µM.
In the case of `O=C(c1ccc([N+](=O)[O-])cc1)N1CCC2(C=CCCC2)Cc2ccccc21` (centres unmarked) [Compound 49, 4-(4-Nitrobenzoyl)-4-aza-[6,5]-spiro-[5,6]-benzododec-2′-ene], the inhibition at 10 µM at human V2 receptor (@ 10 μM) worked out at 30%. The same compound registered an IC50 at V1a of 0.38 µM.
`O=C(c1cc(C(F)(F)F)cc(C(F)(F)F)c1)N1CCC2(C=CCCC2)Cc2ccccc21` (centres unmarked) [Compound 50]: at human V2 receptor (@ 10 μM), the “Receptor Binding V2 (% Inh. @ concentration in μM)” value is 26% @ 10. Besides, the “Receptor Binding V1a (% Inh. @ concentration in μM)” value on V1a (@ 10 μM) came out at 20% @ 10.
For `O=C(c1cccc(Br)c1)N1CCC2(C=CCCC2)Cc2ccccc21` (centres unmarked) [Compound 51], the inhibition at 10 µM on human V2 receptor (@ 10 μM) was 33%. In addition, the IC50 on V1a came to 5.6 µM.
Regarding `N#Cc1cccc(C(=O)N2CCC3(C=CCCC3)Cc3ccccc32)c1` (centres unmarked) [Compound 52], the “Receptor Binding V2 (% Inh. @ concentration in μM)” value on human V2 receptor (@ 10 μM) was determined as 28% @ 10. On V1a, this compound yielded an IC50 of 0.53 µM.
In the case of `O=C(NCc1ccc(C(=O)N2CCC3(C=CCCC3)Cc3ccccc32)cc1)c1ccccc1` (centres unmarked) [Compound 55], the “Receptor Binding V2 (% Inh. @ concentration in μM)” value at human V2 receptor (@ 10 μM) came to 29% @ 10. Besides, the “Receptor Binding V1a (% Inh. @ concentration in μM)” value at V1a (@ 10 μM) was 0% @ 10.
Take `O=C(c1cccc(C(F)(F)F)c1)N1CCC2(C=CCCC2)Cc2ccccc21` (centres unmarked) [Compound 56]: on human V2 receptor (@ 10 μM), the inhibition at 10 µM is 0%. The IC50 on V1a worked out at 4.3 µM.
Take `CC(=O)Nc1ccc(C(=O)N2CCC3(C=CCCC3)Cc3ccccc32)cc1` (centres unmarked) [Compound 57]: the inhibition at 1 µM on human V2 receptor (@ 1 μM) is 4%. At V1a, this compound displayed an IC50 of 0.34 µM.
For `CN(C)c1ccc(C(=O)N2CCC3(C=CCCC3)Cc3ccccc32)cc1` (centres unmarked) [Compound 60], the “Receptor Binding V2 (% Inh. @ concentration in μM)” value at human V2 receptor (@ 1 μM) was 14% @ 1. At V1a, this compound returned an IC50 of 0.051 µM.
For `O=C(Nc1ccccc1)N1CCC2(C=CCCC2)Cc2ccccc21` (centres unmarked) [Compound 61], the “Receptor Binding V2 (% Inh. @ concentration in μM)” value at human V2 receptor (@ 1 μM) worked out at 3% @ 1. The “Receptor Binding V1a (% Inh. @ concentration in μM)” value on V1a (@ 1 μM) worked out at 11% @ 1.
For the compound `O=C(Nc1ccc(F)cc1)N1CCC2(C=CCCC2)Cc2ccccc21` (centres unmarked) [Compound 62], the “Receptor Binding V2 (% Inh. @ concentration in μM)” value at human V2 receptor (@ 1 μM) stood at 4% @ 1. Also, the “Receptor Binding V1a (% Inh. @ concentration in μM)” value at V1a (@ 1 μM) came out at 5% @ 1.
With `COc1ccc(C(=O)Nc2ccc(C(=O)N3CCC4(C=CCCC4)Cc4ccccc43)cc2)cc1OC` (centres unmarked) [Compound 97], on human V2 receptor (@ 1 μM), the “Receptor Binding V2 (% Inh. @ concentration in μM)” value was 2% @ 1.
As for `COc1cc(-n2ccc(C(=O)O)c2)ccc1C(=O)N1CCC2(C=C(C(=O)NCCN(C)C)CC2)Cc2ccccc21` (centres unmarked) [Compound 200], at V1a (setting [1]), the inhibition at 0.1 µM is 0%.
On the same count and under the same terms, under `COC(=O)C1=CC2(CC1)CCN(C(=O)c1cc(OC)c(OC)c(OC)c1)c1ccccc1C2` (centres unmarked) [Compound 203] stands 3%; under `CCOC(=O)Oc1c(OC)cc(C(=O)N2CCC3(C=C(C(=O)OC)CC3)Cc3ccccc32)cc1OC` (centres unmarked) [Compound 204], 0%.
In the case of `CCCCOc1ccc(C(=O)N2CCC3(C=C(C(=O)OC)CC3)Cc3ccccc32)cc1` (centres unmarked) [Compound 205], the IC50 on V1a turned out to be 0.14 µM.
For `CCOC(=O)Oc1c(OC)cc(C(=O)N2CCC3(C=CCCC3)Cc3ccccc32)cc1OC` (centres unmarked) [Compound 206, 4-(4-Ethoxycarboyloxy-3,5-dimethoxybenzoyl)-4-aza-[6,5]-spiro-[5,6]-benzododec-2′-ene], at V1a (setting [1]), the inhibition at 0.1 µM was found to be 9%.
Consider `Cc1ccn(-c2ccc(C(=O)N3CCC4(C=C(C(=O)N5CCN(C)CC5)CC4)Cc4ccccc43)cc2N(C)C)n1` (centres unmarked) [Compound 214], for which the inhibition at 0.1 µM at V1a (setting [1]) was found to be 48%.
`COC(=O)C1=CC2(CC1)CCN(C(=O)c1ccc(-n3ccc(C(C)=O)c3)c(OC)c1)c1ccccc1C2` (centres unmarked) [Compound 215]: at V1a (setting [1]), the inhibition at 0.1 µM worked out at 64%.
As to `COc1cc(C(=O)N2CCC3(C=C(C(=O)N4CCN(C)CC4)CC3)Cc3ccccc32)ccc1-n1ccc(C(C)=O)c1` (centres unmarked) [Compound 216], the inhibition at 0.1 µM on V1a (setting [1]) came to 6%.
As for `Cc1ccn(-c2ccc(C(=O)N3CCC4(C=C(C(=O)N5CCN(C)CC5)CC4)Cc4ccccc43)cc2)n1` (centres unmarked) [Compound 217], the inhibition at 0.1 µM on V1a (setting [1]) came to 42%.
Turning to `O=C(O)C1=CC2(CC1)CCN(C(=O)c1ccc(NC(=O)c3cc(F)ccc3F)cc1)c1ccccc1C2` (centres unmarked) [Compound 219], the inhibition at 0.2 µM on V1a (@ 0.2 μM, read-out: Receptor Binding V1a (% Inh. @ concentration in μM)) amounted to 48%.
With `CN(C)CCNC(=O)C1=CC2(CC1)CCN(C(=O)c1ccc(NC(=O)c3cc(F)ccc3F)cc1)c1ccccc1C2` (centres unmarked) [Compound 220], the IC50 on V1a amounted to 0.013 µM.
Still for that read-out and setting: the value for `CN(C)CCCNC(=O)C1=CC2(CC1)CCN(C(=O)c1ccc(NC(=O)c3cc(F)ccc3F)cc1)c1ccccc1C2` (centres unmarked) [Compound 221] was 0.009 µM.
